Experiment: Toxicity test in normal, noncancerous mice
Assay type: in vivo
Experimental: Ten normal, noncancerous mice were injected with D-threo-PDMP daily for 10 days, then killed 5 hours later with the results set forth in Table 4.
The preceding experiment was repeated in order to observe less evancescent responses: the mice were killed 40 hours after the last injection following 12 daily injections. Here, of the absolute weights, only the kidneys were statistically different in treated mice, 11% smaller (p less than 0.05%). Comparing the 40 hour and 5 hour experiments it seems likely that the liver weights renormalized faster than the kidneys, perhaps a reflection of faster glucolipid turnover.
This failure to harm the bone marrow and related systems compares favorably with the high toxicity of many antineoplastics.

[1] = 100 mg/kg/day, 10 injections, killed 5 hours later

CCCCCCCCCC(=O)N[C@H](CN1CCOCC1)[C@H](O)c1ccccc1 [D-threo-PDMP, 1-Phenyl-2-Decanoylamino-3-Morpholino-1-Propanol]
Average body weight gain of treated mice (100 mg/kg/day, 10 injections, controls gained 4.5 g): 2.1 g
Body weight smaller than controls [1]: 8%
Brain Weight [1]: 0.444 g
Brain Weight (% of body) [1]: 1.67 % of body
Kidney Weight [1]: 0.329 g
Kidney Weight (% of body) [1]: 1.24 % of body
Kidney weight smaller than controls [1]: 17%
Liver Weight [1]: 1.32 g
Liver Weight (% of body) [1]: 4.97 % of body
Liver weight smaller than controls [1]: 18%
Spleen Weight [1]: 0.095 g
Spleen Weight (% of body) [1]: 0.36 % of body
Spleen size compared with controls [1]: slightly but not significantly smaller
Body Weight (100 mg/kg/day, 10 injections, killed 5 hours later, initial mean 24.4 g): 26.5 g
Brain weight smaller than controls (100 mg/kg/day, 10 injections, killed 5 hours later, p less than 0.025): 4.6%
Cell counts on orbital blood (RBC, WBC, differential monocytes, lymphocytes, eosinophiles, neutrophils) (12 daily injections): no abnormalities
Kidney weight (absolute) smaller than controls (12 daily injections, killed 40 hours after the last injection): 11%

— US5041441A, “Method of chemotherapy using 1-phenyl-2-decanoylamino-3-morpholino-1-propanol” (The Regents of the University of Michigan, priority 1988, dated 1991)
